US10954228B2 (NATIONAL INSTITUTES OF HEALTH, UNITED STATES DEPARTMENT OF …, priority 2016, dated 2021)

The compounds below were run against Human LDHA (Homo sapiens (Human), UniProt P00338) (assay: human LDHA primary biochemical assay). Conditions: biochemical LDHA inhibitory activity, assay of Example 1; activity level classes defined in nM.
Source text: This example describes a human LDHA primary biochemical assay employed in the characterization of a compound of formula (I) in an embodiment of the invention.
Test compounds were placed in a Greiner Bio-One (Monroe, N.C.) 1536-well black solid bottom assay plate. 200 millimolar (mM) Tris HCl, pH 7.4, 100 micromolar (μM) EDTA and 0.01% TWEEN-20™, final concentration, was used as the assay buffer. The LDHA reagent was 2 nanomolar (nM) Human LDHA (Meridian Life Science, Inc., Memphis, Tenn.), final concentration, in assay buffer. The substrate reagent was 0.06 mM NADH and 0.2 mM sodium pyruvate, final concentration, in assay buffer. The resazurin/diaphorase coupling reagent was 0.037 mM resazurin and 0.133 milligrams per milliliter (mg/mL) diaphorase, final concentration, in assay buffer. The inhibition of LDHA activity was measured by fluorescence emission.

Row | IC50 [nM] | Compound
1 | 100 to 1000 | Cc1ccc(C#Cc2cccc(-c3nn(-c4nc(C(=O)O)cs4)c(C(C)C4CC4)c3Cc3ccc([S+](N)(=O)[O-])c(F)c3)c2)s1 (stereo not shown) [Compound 116, 2-(5-(1-cyclopropylethyl)-4-(3-fluoro-4-sulfamoylbenzyl)-3-(3-((5-methylthiophen-2-yl)ethynyl)phenyl)-1H-pyrazol-1-yl)thiazole-4-carboxylic acid]
2 | 1000 to 57000 | Cc1ccc(C#Cc2cccc(-c3nn(-c4nc(C(=O)O)cs4)c(C(C4CC4)C4CC4)c3Cc3ccc([S+](N)(=O)[O-])c(F)c3)c2)s1 [Compound 126, 2-(5-(dicyclopropylmethyl)-4-(3-fluoro-4-sulfamoylbenzyl)-3-(3-((5-methylthiophen-2-yl)ethynyl)phenyl)-1H-pyrazol-1-yl) thiazole-4-carboxylic acid]
3 | 100 to 1000 | Cc1ccc(C#Cc2cccc(-c3nn(-c4nc(C(=O)O)cs4)c(C(C)(C)C4CC4)c3Cc3ccc([S+](N)(=O)[O-])c(F)c3)c2)s1 [Compound 128, 2-(5-(2-cyclopropylpropan-2-yl)-4-(3-fluoro-4-sulfamoylbenzyl)-3-(3-((5-methylthiophen-2-yl)ethynyl)phenyl)-1H-pyrazol-1-yl) thiazole-4-carboxylic acid]
4 | 1000 to 57000 | Cc1ccc(C#Cc2cccc(-c3nn(-c4nc(B(O)O)cs4)c(CC4CC4)c3Cc3ccc(S(N)(=O)=O)c(F)c3)c2)s1 [Compound 135, (2-(5-(cyclopropylmethyl)-4-(3-fluoro-4-sulfamoylbenzyl)-3-(3-((5-methylthiophen-2-yl)ethynyl)phenyl)-1H-pyrazol-1-yl)thiazol-4-yl)boronic acid]
5 | < 100 | NS(=O)(=O)c1ccc(Cc2c(-c3ccc(F)c(-c4ccc(F)c(F)c4)c3)nn(-c3nc(C(=O)O)cs3)c2CC2CC2)cc1F [Compound 136, 2-(5-(cyclopropylmethyl)-4-(3-fluoro-4-sulfamoylbenzyl)-3-(3′,4′,6-trifluoro-[1,1′-biphenyl]-3-yl)-1H-pyrazol-1-yl)thiazole-4-carboxylic acid]
6 | < 100 | CC(=O)c1cc(-c2nn(-c3nc(C(=O)O)cs3)c(CC3CC3)c2Cc2ccc(S(N)(=O)=O)c(F)c2)ccc1F [Compound 140, 2-(3-(3-acetyl-4-fluorophenyl)-5-(cyclopropylmethyl)-4-(3-fluoro-4-sulfamoylbenzyl)-1H-pyrazol-1-yl)thiazole-4-carboxylic acid]
7 | < 100 | NS(=O)(=O)c1ccc(Cc2c(-c3ccc(F)c(C4=CCCO4)c3)nn(-c3nc(C(=O)O)cs3)c2CC2CC2)cc1F [Compound 148, 2-(5-(cyclopropylmethyl)-3-(3-(4,5-dihydrofuran-2-yl)-4-fluorophenyl)-4-(3-fluoro-4-sulfamoylbenzyl)-1H-pyrazol-1-yl)thiazole-4-carboxylic acid]
8 | < 100 | NS(=O)(=O)c1ccc(Cc2c(-c3ccc(F)c(NC(=O)c4ccccc4)c3)nn(-c3nc(C(=O)O)cs3)c2CC2CC2)cc1F [Compound 152, 2-(3-(3-benzamido-4-fluorophenyl)-5-(cyclopropylmethyl)-4-(3-fluoro-4-sulfamoylbenzyl)-1H-pyrazol-1-yl)thiazole-4-carboxylic acid]
9 | < 100 | N[S+](=O)([O-])c1ccc(Cc2c(-c3ccc(F)c(C(=O)N4CCCC4)c3)nn(-c3nc(C(=O)O)cs3)c2CC2CC2)cc1F [Compound 154]
10 | < 100 | CC(C)N1CC2(CN(c3cc(-c4nn(-c5nc(C(=O)O)cs5)c(CC5CC5)c4Cc4ccc(S(N)(=O)=O)c(F)c4)ccc3F)C2)C1 [Compound 158, 2-(5-(cyclopropylmethyl)-3-(4-fluoro-3-(6-isopropyl-2,6-diazaspiro[3.3]heptan-2-yl)phenyl)-4-(3-fluoro-4-sulfamoylbenzyl)-1H-pyrazol-1-yl)thiazole-4-carboxylic acid]
11 | < 100 | NS(=O)(=O)c1ccc(Cc2c(-c3ccc(F)c(-c4ncc[nH]4)c3)nn(-c3nc(C(=O)O)cs3)c2CC2CC2)cc1F [Compound 159, 2-(5-(cyclopropylmethyl)-3-(4-fluoro-3-(1H-imidazol-2-yl)phenyl)-4-(3-fluoro-4-sulfamoylbenzyl)-1H-pyrazol-1-yl)thiazole-4-carboxylic acid]
12 | < 100 | NS(=O)(=O)c1ccc(Cc2c(-c3ccc(F)c(-c4nc5ccccc5[nH]4)c3)nn(-c3nc(C(=O)O)cs3)c2CC2CC2)cc1F [Compound 160, 2-(3-(3-(1H-benzo[d]imidazol-2-yl)-4-fluorophenyl)-5-(cyclopropylmethyl)-4-(3-fluoro-4-sulfamoylbenzyl)-1H-pyrazol-1-yl)thiazole-4-carboxylic acid]
13 | < 100 | Cc1ncc(-c2cc(-c3nn(-c4nc(C(=O)O)cs4)c(CC4CC4)c3Cc3ccc(S(N)(=O)=O)c(F)c3)ccc2F)[nH]1 [Compound 161, 2-(5-(cyclopropylmethyl)-3-(4-fluoro-3-(2-methyl-1H-imidazol-5-yl)phenyl)-4-(3-fluoro-4-sulfamoylbenzyl)-1H-pyrazol-1-yl)thiazole-4-carboxylic acid]
14 | 1000 to 57000 | Cc1ccc(C#Cc2cccc(-c3nn(-c4nc(C(N)=O)cs4)c(CC4CC4)c3Cc3ccc(S(N)(=O)=O)c(F)c3)c2)s1 [Compound 163, 2-(5-(cyclopropylmethyl)-4-(3-fluoro-4-sulfamoylbenzyl)-3-(3-((5-methylthiophen-2-yl)ethynyl)phenyl)-1H-pyrazol-1-yl)thiazole-4-carboxamide]
15 | 1000 to 57000 | Cc1cc(-c2cccc(-c3nn(-c4nc(C(=O)O)cs4)c(CC4CC4)c3Cc3ccc(S(N)(=O)=O)c(F)c3)c2)ccc1Cl [Compound 170, 2-(3-(4′-chloro-3′-methyl-[1,1′-biphenyl]-3-yl)-5-(cyclopropylmethyl)-4-(3-fluoro-4-sulfamoylbenzyl)-1H-pyrazol-1-yl)thiazole-4-carboxylic acid]
16 | 1000 to 57000 | NS(=O)(=O)c1ccc(Cc2c(-c3cccc(-c4ccc(C5CC5)c(F)c4)c3)nn(-c3nc(C(=O)O)cs3)c2CC2CC2)cc1F [Compound 171, 2-(3-(4′-cyclopropyl-3′-fluoro-[1,1′-biphenyl]-3-yl)-5-(cyclopropylmethyl)-4-(3-fluoro-4-sulfamoylbenzyl)-1H-pyrazol-1-yl)thiazole-4-carboxylic acid]
17 | 100 to 1000 | COc1ccc(-c2cccc(-c3nn(-c4nc(C(=O)O)cs4)c(CC4CC4)c3Cc3ccc(S(N)(=O)=O)c(F)c3)c2)cc1Cl [Compound 172, 2-(3-(3′-chloro-4′-methoxy-[1,1′-biphenyl]-3-yl)-5-(cyclopropylmethyl)-4-(3-fluoro-4-sulfamoylbenzyl)-1H-pyrazol-1-yl)thiazole-4-carboxylic acid]
18 | 1000 to 57000 | Cc1ccc(C#Cc2cccc(-c3nn(-c4nc(C(=O)NS(C)(=O)=O)cs4)c(CC4CC4)c3Cc3ccc(S(N)(=O)=O)c(F)c3)c2)s1 [Compound 180, 2-(5-(cyclopropylmethyl)-4-(3-fluoro-4-sulfamoylbenzyl)-3-(3-((5-methylthiophen-2-yl)ethynyl)phenyl)-1H-pyrazol-1-yl)-N-(methylsulfonyl)thiazole-4-carboxamide]
19 | > 57000 | Cc1ccc(C#Cc2cccc(-c3nn(-c4nc(CO)cs4)c(CC4CC4)c3Cc3ccc(S(N)(=O)=O)c(F)c3)c2)s1 [Compound 181, 4-((5-(cyclopropylmethyl)-1-(4-(hydroxymethyl)thiazol-2-yl)-3-(3-((5-methylthiophen-2-yl)ethynyl)phenyl)-1H-pyrazol-4-yl)methyl)-2-fluorobenzenesulfonamide]
20 | 100 to 1000 | CCc1cc(-c2cccc(-c3nn(-c4nc(C(=O)O)cs4)c(CC4CC4)c3Cc3ccc(S(N)(=O)=O)c(F)c3)c2)ccc1OC [Compound 182, 2-(5-(cyclopropylmethyl)-3-(3′-ethyl-4′-methoxy-[1,1′-biphenyl]-3-yl)-4-(3-fluoro-4-sulfamoylbenzyl)-1H-pyrazol-1-yl)thiazole-4-carboxylic acid]
21 | < 100 | NS(=O)(=O)c1ccc(Cc2c(-c3cccc(-c4ccc(C5CC5)cc4)c3)nn(-c3nc(C(=O)O)cs3)c2CC2CC2)cc1F [Compound 183, 2-(3-(4′-cyclopropyl-[1,1′-biphenyl]-3-yl)-5-(cyclopropylmethyl)-4-(3-fluoro-4-sulfamoylbenzyl)-1H-pyrazol-1-yl)thiazole-4-carboxylic acid]
22 | 100 to 1000 | NS(=O)(=O)c1ccc(Cc2c(-c3cccc(-c4ccc(C5CCC5)cc4)c3)nn(-c3nc(C(=O)O)cs3)c2CC2CC2)cc1F [Compound 184, 2-(3-(4′-cyclobutyl-[1,1′-biphenyl]-3-yl)-5-(cyclopropylmethyl)-4-(3-fluoro-4-sulfamoylbenzyl)-1H-pyrazol-1-yl)thiazole-4-carboxylic acid]
23 | 100 to 1000 | Cc1cc(-c2cc(-c3nn(-c4nc(C(=O)O)cs4)c(CC4CC4)c3Cc3ccc(S(N)(=O)=O)c(F)c3)ccc2F)ccc1Cl [Compound 185, 2-(3-(4′-chloro-6-fluoro-3′-methyl-[1,1′-biphenyl]-3-yl)-5-(cyclopropylmethyl)-4-(3-fluoro-4-sulfamoylbenzyl)-1H-pyrazol-1-yl)thiazole-4-carboxylic acid]
24 | 100 to 1000 | CCc1cc(-c2cc(-c3nn(-c4nc(C(=O)O)cs4)c(CC4CC4)c3Cc3ccc(S(N)(=O)=O)c(F)c3)ccc2F)ccc1OC [Compound 186, 2-(5-(cyclopropylmethyl)-3-(3′-ethyl-6-fluoro-4′-methoxy-[1,1′-biphenyl]-3-yl)-4-(3-fluoro-4-sulfamoylbenzyl)-1H-pyrazol-1-yl)thiazole-4-carboxylic acid]

Row | Compound | IC50 [nM]
25 | 2-(5-([1,1′-bi(cyclopropan)]-2-yl)-4- (3-fluoro-4-sulfamoylbenzyl)- 3-(3-((5-methylthiophen-2- yl)ethynyl)phenyl)-1H-pyrazol-1- yl)thiazole-4-carboxylic acid [Compound 134] | 100 to 1000
